The target of assay [1] is Glutamate receptor ionotropic, NMDA 2A (Rattus norvegicus) (UniProt Q00959). As to the kind of experiment: Antagonist activity at GluN2A in rat primary pyramidal neurons assessed as inhibition of NMDA/glycine-induced current amplitude at 10 uM at holding potential of -70 mV by patch-clamp electrophysiology assay.
Assay [2] shares this target. As to the kind of experiment: Antagonist activity at GluN2A in CA1 region of Sprague-Dawley rat hippocampal slices assessed as inhibition of schaffer collateral input-stimulated field excitatory postsynaptic potential at 30 to 50 uM after 40 mins by electrophysiology assay.
In assay [3] the target is T1, Oxytocin receptor (Mus musculus, UniProt P97926).
T1 sequence (P97926 whole entry): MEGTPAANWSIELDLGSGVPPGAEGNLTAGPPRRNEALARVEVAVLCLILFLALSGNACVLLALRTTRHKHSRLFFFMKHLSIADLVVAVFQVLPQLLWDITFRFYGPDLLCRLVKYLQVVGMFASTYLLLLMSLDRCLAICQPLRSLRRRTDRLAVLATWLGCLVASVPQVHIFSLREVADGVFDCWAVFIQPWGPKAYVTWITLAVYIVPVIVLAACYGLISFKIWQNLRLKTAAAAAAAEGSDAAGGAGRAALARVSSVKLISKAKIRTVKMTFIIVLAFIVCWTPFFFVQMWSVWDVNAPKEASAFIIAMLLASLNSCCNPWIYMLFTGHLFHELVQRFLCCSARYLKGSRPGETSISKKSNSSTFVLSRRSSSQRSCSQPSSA
As to the kind of experiment: Displacement of [Tyrosyl-2,6-3H]Oxytocin from recombinant mouse OTR expressed in CHO-K1 cells after 180 mins by liquid scintillation counting method. The format is cell-based.

Assay [4] has as its target T1, Oxytocin receptor. As to the kind of experiment: Agonist activity at recombinant mouse OTR expressed in CHO-K1 cells assessed as induction of Ca2+ mobilization after overnight incubation by FLIPR assay. The format is functional, cell-based. Background: Calcium assays in cells follow changes in intracellular calcium, usually with a dye or a luminescent sensor.

Chain of Glutamate receptor ionotropic, NMDA 2A (Rattus norvegicus) (Q00959 23-1464 limits assumed): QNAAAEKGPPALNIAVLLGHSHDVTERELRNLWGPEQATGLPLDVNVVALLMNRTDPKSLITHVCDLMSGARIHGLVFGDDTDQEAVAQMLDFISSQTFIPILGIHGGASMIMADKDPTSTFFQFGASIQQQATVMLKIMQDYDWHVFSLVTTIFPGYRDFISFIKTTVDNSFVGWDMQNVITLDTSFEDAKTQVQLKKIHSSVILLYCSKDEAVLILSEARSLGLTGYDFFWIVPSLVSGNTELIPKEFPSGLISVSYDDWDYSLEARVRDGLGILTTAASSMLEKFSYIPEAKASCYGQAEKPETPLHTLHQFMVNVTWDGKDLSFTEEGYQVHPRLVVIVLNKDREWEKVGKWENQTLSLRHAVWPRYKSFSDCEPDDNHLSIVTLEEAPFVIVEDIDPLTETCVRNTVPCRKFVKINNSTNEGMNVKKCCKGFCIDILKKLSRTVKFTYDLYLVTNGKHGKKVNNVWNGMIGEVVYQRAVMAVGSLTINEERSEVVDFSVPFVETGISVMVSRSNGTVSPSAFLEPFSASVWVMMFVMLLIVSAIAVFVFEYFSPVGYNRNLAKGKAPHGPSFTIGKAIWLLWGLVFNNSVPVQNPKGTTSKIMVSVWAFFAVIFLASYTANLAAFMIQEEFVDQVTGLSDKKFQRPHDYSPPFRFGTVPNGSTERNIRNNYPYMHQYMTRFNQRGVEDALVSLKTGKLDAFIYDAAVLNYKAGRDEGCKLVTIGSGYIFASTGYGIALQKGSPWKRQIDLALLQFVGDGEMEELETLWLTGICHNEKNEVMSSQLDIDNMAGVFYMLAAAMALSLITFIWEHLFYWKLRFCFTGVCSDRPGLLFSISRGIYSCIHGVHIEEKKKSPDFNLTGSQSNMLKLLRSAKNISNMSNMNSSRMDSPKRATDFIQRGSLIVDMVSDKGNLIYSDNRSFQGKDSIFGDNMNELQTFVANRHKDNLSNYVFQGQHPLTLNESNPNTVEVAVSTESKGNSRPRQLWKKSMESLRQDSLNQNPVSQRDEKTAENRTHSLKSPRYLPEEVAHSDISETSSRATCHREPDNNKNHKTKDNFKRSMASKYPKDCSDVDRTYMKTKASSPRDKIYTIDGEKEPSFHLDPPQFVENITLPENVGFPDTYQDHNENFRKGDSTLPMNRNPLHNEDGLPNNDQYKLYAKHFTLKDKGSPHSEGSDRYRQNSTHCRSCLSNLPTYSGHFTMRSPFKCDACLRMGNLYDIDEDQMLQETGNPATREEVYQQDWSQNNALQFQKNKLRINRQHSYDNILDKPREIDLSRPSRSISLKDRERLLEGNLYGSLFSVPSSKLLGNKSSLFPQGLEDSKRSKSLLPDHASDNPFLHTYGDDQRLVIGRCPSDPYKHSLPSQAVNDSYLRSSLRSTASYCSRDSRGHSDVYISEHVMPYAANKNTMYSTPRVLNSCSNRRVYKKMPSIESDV

For orientation: inhibition means the change of the read-out against control, counted positive when it falls. `Cc1ncc(CNC(=O)c2cnc(CNS(=O)(=O)c3ccc(F)c(Cl)c3)cn2)s1`: the inhibition in assay [1] was 30%; in assay [2], 60%.
What is called Ki is a measure of affinity in units of concentration, obtained from inhibition or displacement. As usually defined, the EC50 is the concentration at which the effect is half-maximal. In the case of `Cc1cc(C(=O)N2Cc3cnn(C)c3Nc3ccccc32)ccc1CNC(=O)N1CCN(Cc2cc(O)cc(O)c2)CC1`, on Oxytocin receptor [3], the inhibition constant (Ki) was found to be 51.6 nM. The EC50 on Oxytocin receptor [4] came to 29 nM.
For `Cc1ncc(CNC(=O)c2cnc(CNS(=O)(=O)c3ccc(F)c(F)c3)c(C)n2)s1`, the inhibition in assay [1] turned out to be 30%; in assay [2], 60%.

(Values after ChEMBL document CHEMBL4028877, “Targets for Drug Therapy for Autism Spectrum Disorder: Challenges and Future Directions” (J Med Chem, 2017).)
